{"source": "patent US20090137631A1", "about": "“METHODS AND PHARMACEUTICAL COMPOSITIONS FOR REGULATION OF G- AND/OR GC-RICH NUCLEIC ACID EXPRESSION” (NATIONAL YANG-MING UNIVERSITY, priority 2007, published 2009)", "key": {"[1]": {"test": "Stability of thalidomide in culture medium alone (9 hr pre-incubation, then bFGF transcript readout)", "details": "0.1˜10 μg/ml, 9 hr at 37° C. in culture medium before 3 hr on cells", "method": "In order to test the stability of thalidomide in the culture medium alone, the thalidomide stock solution was diluted with fresh culture medium to 0.1˜10 μg/ml and incubated at 37° C. in a humidified incubator of 5% CO2-95% air for 9 hr before being added to the U-87 MG cells for 3 hr."}, "[2]": {"tested_on": "genes with GC-rich promoter", "details": "Drucker et al., 2003; cited from earlier work"}, "[3]": {"tested_on": "bFGF RNA levels in U-87 MG cells", "method": "The U-87 MG cells were purchased from American Type Culture Collection (ATCC, Rockville, Md.) and maintained in Dulbecco's modified Eagle's medium (DMEM; Gibco) containing 10% heat inactivated fetal bovine serum (FBS; Gibco) and antibiotics, such as penicillin G (Sigma-Aldrich) and streptomycin (Sigma-Aldrich), at 37° C. in a humidified incubator of 5% CO2-95% air. Thalidomide (TYY Biopharm, Taiwan) was dissolved in dimethyl sulfoxide (DMSO; Sigma-Aldrich) first to make a stock solution of 50 mg/ml, and then diluted to various, desired concentrations with medium. The maximum of the final concentration of DMSO in the medium was 0.02%.\nReal-time RT-PCR analysis was used to assess the RNA levels of bFGF in U-87 MG cells. After being treated with indicated concentrations (0, 0.1, 1 and 10 μg/ml) of thalidomide for 3 hr and 12 hr, U-87 MG cells were washed twice with ice-cold phosphate buffered saline (PBS) and RNA was extracted by using RNA-Bee™ RNA isolation solvent (Tel-test). Total RNA (5 μg) was used to prepare cDNA by using AMV reverse transcriptase (Promega). The reverse-transcribed cDNA samples were analyzed by real-time PCR using ABI Prism 7700 Sequence Detection System (Applied Biosystems) and the SYBR Green Master Mix kit (Applied Biosystems). […]"}, "[4]": {"tested_on": "bFGF proteins in U-87 MG cells", "test": "Immunofluorescence staining of bFGF protein (FACS and fluorescence microscopy)", "format": "cell-based, human", "procedure": "U-87 MG cells were treated with indicated concentrations (0, 0.1, 1 and 10 μg/ml) of free-form and liposomal thalidomide and fixed in 4% (w/v) paraformaldehyde (Sigma-Aldrich) in PBS for 15 min, permeabilized with 0.01% (v/v) Triton X-100 (Sigma-Aldrich) or 0.5% (v/v) saponin (Sigma-Aldrich) in PBS for 30 min at room temperature. The cells were subsequently treated with 0.5 μg polyclonal rabbit anti human bFGF antibody (ab16828, Abeam) for 30 min at room temperature, washed, followed by staining with FITC-conjugated goat anti-rabbit IgG (Jackson ImmunoResearch) at 1:200 dilution for 30 min. Hoechst 33258 (Sigma-Aldrich) was used as a nuclear marker. The cells were then washed and visualized using a fluorescence microscope (Olympus Optical Co, Tokyo, Japan) or analyzed using the BD FACSCalibur™ flow cytometer (BD Biosciences). The relative expression level of cellular bFGFs was calculated by normalized the mean fluorescence value of each treatment with the empty liposome treated control. […] Because HMW bFGFs were the major isoforms localized in nucleus (Renko et al., 1990), a decrease of its signal intensity in this compartment might reflect a reduced expression of HMW bFGFs."}, "[5]": {"details": "clinical daily dose 200 to 800 mg, maximum 1200 mg; cited from earlier work"}, "[6]": {"tested_on": "U-87 MG cells", "test": "Soft agar colony formation assay (anchorage-independent growth)", "format": "cell-based, human", "details": "2 weeks; for colony-forming ability in soft agar (anchorage-independent growth): 0.1˜10 μg/ml", "procedure": "Because bFGF was known to promote cell transformation (Vagner et al., 1996), the soft agar colony formation assay (Murphy et al., 1992) and hanging drop method (Kelm et al., 2003) were used to assess the effects of thalidomide on anchorage-independent and three-dimensional growth abilities of U-87 MG cells, respectively. The colony forming assay was performed according to a two-layer agar technique (Murphy et al., 1992). The bottom layer consisted of 0.3 ml of DMEM with 10% FBS and 0.5% (w/v) agarose (Amresco). Approximately 1000 U-87 MG cells were added to the same medium containing 10% FBS and 0.3%) (w/v) low-melting agarose (Amresco) plus indicated concentrations (0, 0.1, 1 and 10 μg/ml) of free-form thalidomide, and plated in 24-well plates (Costar, Corning) onto the base layer. […] Colony-forming ability (size, >0.1 mm) was measured."}, "[7]": {"tested_on": "U-87 MG cells", "test": "Resazurin cell proliferation assay", "format": "cell-based, human", "details": "0˜100 μg/ml, 72 hr (FIG. 3A)", "method": "Cell proliferation ability was assayed using a resazurin assay (Nociari et al., 1998), in which resazurin dye was used as a redox indicator to detect cell growth, not cell death. Resazurin sodium (Sigma-Aldrich) stock solution in PBS (5 mM) was prepared, and the working solution (50 μM) was diluted from the stock using DMEM (Gibco) without FBS. Approximately 3000 U-87 MG cells were seeded onto 96-well plates (Costar, Corning), allowed to attach at 37° C. in a humidified incubator of 5% CO2-95% air for 16 hr, and treated with indicated concentrations (0, 0.1, 1, 10, and 100 μg/ml) of free-form and liposomal thalidomide for 72 h. For resazurin assay, the culture medium was removed and freshly diluted resazurin working solution (100 μl) was added into each well. Following incubation at 37° C. in a humidified incubator of 5% CO2-95% air for 2 hr, the resazurin dye was reduced by the activity of living cells, and the reduced form of resazurin was determined at a fluorescence excitation wavelength 530 nm and emission wavelength 590 nm by a Victor 2 1420 Multilable Counter (Wallac, PerkinElmer)."}, "[8]": {"tested_on": "G-rich hTERT promoter", "details": "Drucker et al., 2003; cited from earlier work"}, "[9]": {"tested_on": "bFGF promoter", "test": "bFGF promoter-controlled EGFP reporter expression in U87-bFGF-EGFP cells", "format": "cell-based, human", "details": "0.1˜10 μg/ml, 3 hr, dose-dependent", "method": "To evaluate the effect of thalidomide on the transcription driven by bFGF promoter, pbFGF-EGFP plasmid, containing bFGF promoter to drive the expression of enhanced green fluorescence protein (EGFP), was stably transfected into U-87 MG to get U87-bFGF-EGFP cell. […] Approximately 2×10^5 U-87 MG cells were plated in 6-well plates (Falcon) 24 hr before transfection and exposed to 3 μg total DNA (plasmid pbFGF-EGFP) and 3 μl Lipofectamine 2000 (Invitrogen Corp.) in DMEM without FBS according to the manufacture's brochure of Lipofectamine 2000. After cultured at 37° C. in a humidified incubator of 5% CO2-95% air for 48 hr, cells were trypsinized and passaged into DMEM with 10% FBS (20× dilutions). Stable transfectants (U87-bFGF-EGFP cells) were selected by using geneticin (800 μg/ml; Merck Biosciences) for 1 month.\nU87-bFGF-EGFP cells were treated with indicated concentrations (0, 0.1, 1 and 10 μg/ml) of free-form thalidomide for 3 hr. The fluorescence of EGFP was measured by flow cytometry (FACS Calibur, BD Biosciences). […] The RNA levels of EGFP were analyzed by real-time RT-PCR and GAPDH was used as an internal control."}, "[10]": {"tested_on": "G-rich bFGF DNA fragment", "test": "UV-VIS absorbance of thalidomide after incubation with bFGF DNA fragments", "format": "binding, human", "details": "G-rich fragment (91% GC) versus non-G-rich control fragment (44% GC)", "method": "The G-rich fragment with 91% GC content and non-G-rich control fragment with 44% GC content were designed from the promoter region of bFGF (FIG. 6A). To examine whether thalidomide could interact preferentially with the G- and/or GC-rich region of bFGF, the ultraviolet-visible (UV-VIS) absorbance of thalidomide was assayed using a Hitachi U2000 Spectrophotometer with the scanning range from 330 to 190 nm. The absorbance of thalidomide would be diminished by bound tightly with the secondary structure of a DNA (Usha et al., 2005)."}, "[11]": {"tested_on": "HMW-IRES", "test": "Bicistronic luciferase IRES activity, U87-HMW-IRES cells", "format": "cell-based, human", "details": "0.1˜10 μg/ml, 12 hr", "description": "(§1) To examine whether the G- and/or GC-rich region in IRES of N-terminal extension of bFGF transcript could also be regulated by thalidomide, plasmids pHMW-IRES and pLMW-IRES (FIG. 5A) were designed using bicistronic vector as previous described (Creancier et al., 2000). There were two luciferase genes, Renilla luciferase (LucR) and firefly luciferase (LucF), which were controlled by the cytomegalovirus (CMV) promoter and separated by the LMW-IRES fragment (SEQ ID NO. 12) and HMW-IRES fragment (SEQ ID NO. 15) in plasmids pLMW-IRES or pHMW-IRES (FIG. 5A), respectively. […] Approximately 2×10^5 U-87 MG cells were plated in 6-well plates (Falcon) 24 hr before transfection and exposed to 3 μg total DNA (plasmid pLMW-IRES or pHMW-IRES) and 3 μl Lipofectamine 2000 (Invitrogen, Carlsbad, USA) in DMEM without FBS according to the manufacture's brochure of Lipofectamine 2000. […]\n(§2) U87-LMW-IRES and U87-HMW-IRES cells were treated with indicated concentrations (0, 0.1, 1 and 10 μg/ml) of liposomal thalidomide for 12 hr, and the two luciferase activities were measured in each cell extracts by scintillation counting in a Victor 2 1420 Multilabel Counter (Wallac, PerkinElmer). The IRES activity was determined by calculating the LucR/LucF ratios (the ratio of renilla to firefly luciferase activity) normalized by the untreated control."}, "[12]": {"tested_on": "HMW and LMW bFGF isoforms in U-87 MG cells", "details": "1 and 10 μg/ml, 12 hr", "method": "Immunoblot (or western blot) analysis was therefore performed to analyze the amount of different bFGF isoforms and GAPDH was used as die internal control, which level would not be affected by thalidomide. After being treated with indicated concentrations (0, 0.1, 1 and 10 μg/ml) of free-form and liposomal thalidomide, U-87 MG cell lysate was prepared using lysis buffer (50 mM Tris [hydroxymethyl] aminomethane (Tris; USB), 1% (v/v) TritonX-100 (Sigma-Aldrich), 150 mM sodium chloride (NaCl; J. T. Baker), 1 mM ethylenediaminetetraacetic acid (EDTA; Sigma-Aldrich), 1 mM phenylmethylsulphonyl fluoride (PMSF; Sigma-Aldrich). Cell lysates (2 μg) containing proteins were separated with using 15% polyacrylamide gel electrophoresis and transferred to a polyvinylidene fluoride (PVDF) membrane (PerkinElmer). The membrane was incubated with polyclonal rabbit anti human bFGF antibody (ab16828, Abeam) at 1:200 dilution or anti-GAPDH antibody (ab9482, Abeam) at 1:10000 dilution, which was used as an internal control, followed by horseradish peroxidase-conjugated anti-IgG secondary antibody (Jackson ImmunoResearch) at 1:5000 dilution. The enhanced chemiluminescent (ECL; PerkinElmer) detection method (Amersham) was used for blotting analysis."}, "[13]": {"tested_on": "U-87 MG cells", "test": "Hanging drop spheroid aggregation assay", "format": "cell-based, human", "details": "0.1˜10 μg/ml, 48 hr, dose-dependently", "procedure": "For hanging drop assay, approximately 1000 U-87 MG cells per 20 μl of cell suspension in culture medium (DMEM with 10% FBS) with indicated concentrations (0, 0.1, 1 and 10 μg/ml) of free-form thalidomide were spotted on the cover of a 6-cm culture dish (Falcon). The cover was returned to its top position with the cell suspension droplet facing down toward the bottom dish, which contained 5 ml of DMEM for maintenance of moisture during incubation. […] Each spheroid was photographed by using phase-contrast microscopy. The aggregation percentage was assayed by calculating the aggregation ability from 20 spheroids for each assay condition. The cell aggregates formed in spheroid culture was abolished by free-form thalidomide dose-dependently (FIG. 3D and FIG. 3E)."}, "[14]": {"tested_on": "LPS induced TNF-α secretion by monocytes", "details": "Sampaio et al., 1991; cited from earlier work"}, "[15]": {"tested_on": "LMW-IRES", "test": "Bicistronic luciferase IRES activity, U87-LMW-IRES cells", "format": "cell-based, human", "details": "0.1˜10 μg/ml, 12 hr", "description": "as §1, §2"}, "[16]": {"details": "listed as free-form thalidomide"}}, "note": "Several values for one entry are separate records, joined by “and”; a condition that tells them apart may be missing. Equal values may be shown once."}
{"compound": "O=C1CCC(N2C(=O)c3ccccc3C2=O)C(=O)N1", "note": "(racemic) [thalidomide, 2-(2,6-dioxo-3-piperidinyl)-1H-iso-indole-1,3(2H)-dione]", "values": [{"measurement": "activity after incubation in culture media (stability)", "setting": "[1]", "result": "completely lost its activity"}, {"measurement": "concentration down-regulating transcripts levels for genes with GC-rich promoter", "setting": "[2]", "result": "over 12.5 μg/ml"}, {"measurement": "bFGF RNA levels", "setting": "[3]; 0.1˜10 μg/ml, 3 hr", "result": "markedly reduced"}, {"measurement": "inhibitory effect on bFGF expression (RNA)", "setting": "[3]; 12 hr treatment", "result": "disappeared"}, {"measurement": "total level of bFGF proteins", "setting": "[4]; FACS, 12 hr (FIG. 2A)", "result": "down-regulated"}, {"measurement": "nuclear level of bFGF proteins", "setting": "[4]; fluorescence microscopy, 12 hr (FIG. 2B)", "result": "down-regulated"}, {"measurement": "serum concentration", "setting": "[5]", "result": "1800 to 10000", "unit": "ng/mL"}, {"measurement": "colony-forming ability in soft agar (anchorage-independent growth)", "setting": "[6]", "result": "efficiently inhibited"}, {"measurement": "colony-forming ability in soft agar (anchorage-independent growth)", "setting": "[6]; [16]", "result": "dose-dependent response"}, {"measurement": "effective concentration on colony-forming ability in soft agar", "setting": "[6]", "result": 0.1, "unit": "µg/mL"}, {"measurement": "suppression of the proliferation of U-87 MG cells", "setting": "[7]", "result": "ineffectiveness"}, {"measurement": "concentrations used to suppress the G-rich hTERT promoter", "setting": "[8]", "result": "12.5 µg/mL and 25 µg/mL"}, {"measurement": "EGFP fluorescence (flow cytometry)", "setting": "[9]", "result": "diminish"}, {"measurement": "EGFP transcripts (real-time RT-PCR)", "setting": "[9]", "result": "diminish"}, {"measurement": "quench of the absorbance at 230 nm", "setting": "[10]", "result": "more severe quench"}, {"measurement": "HMW-IRES activity (LucR/LucF ratio)", "setting": "[11]", "result": "down regulated"}, {"measurement": "HMW-IRES activity (LucR/LucF ratio)", "setting": "[11]; listed as Thalidomide", "result": "alter the IRES activity in a dose-dependent manner"}, {"measurement": "decrease of the HMW bFGFs compared with LMW bFGFs", "setting": "[12]", "result": "more dramatic than that of LMW ones"}, {"measurement": "cell aggregates formed in spheroid culture", "setting": "[13]", "result": "efficiently inhibited"}, {"measurement": "cell aggregates formed in spheroid culture", "setting": "[13]; [16]", "result": "abolished"}, {"measurement": "concentration inhibiting LPS induced TNF-α secretion", "setting": "[14]", "result": 0.3, "unit": "µg/mL"}, {"measurement": "LMW-IRES activity (LucR/LucF ratio)", "setting": "[15]", "result": "down regulated"}, {"measurement": "LMW-IRES activity (LucR/LucF ratio)", "setting": "[15]; listed as Thalidomide", "result": "alter the IRES activity in a dose-dependent manner"}]}
